The test system of series [1] is CaCO2 cells. The series can be described thus: MTT cell viability assay, CaCO2. Particulars: synthetic peptide 100 µg/ml, 24 h, mean ± SD, n = 3. In kind it is cell-based, human. As to the method:
(§1) CaCO2, HepG2, MCF-7, NCI-H460, SiHa, SW620, and Vero cells were obtained from the American Type Culture Collection (ATCC, Manassas, VA, USA). Cells were cultured in Dulbecco’s Modified Eagle’s Medium (DMEM; PAA, Pasching, Austria), supplemented with 10% (v/v) fetal bovine serum (Gibco, South America), 10 mM HEPES (HyClone, Utah, USA), 2 mM L-glutamine, and 100 U/mL penicillin and 100 µg/mL streptomycin. Cultures were maintained at 37 °C in a humidified atmosphere containing 5% CO₂.
(§2) The anticancer activity of protein hydrolysates and synthetic peptides against CaCO2, HepG2, MCF-7, NCI-H460, SiHa, SW620, and Vero cells were evaluated using the MTT assay. Cells were seeded into 96-well plates (Nunc™, Roskilde, Denmark) at a density of 2 × 10⁴ cells per well, and allowed to adhere. Following seeding, cells were treated with 100 µg/mL of protein hydrolysates or synthetic peptides for 24 h, while untreated cells served as controls. After 24 h, 20 µL of MTT solution (5 mg/mL; Sigma, St. Louis, MO, USA) was added to each well and incubated for an additional 3 h. The supernatant was then removed, and 100 µL of DMSO was added to each well to dissolve the formazan crystals. Optical density (OD) was measured at 540 nm using a microplate reader (Rayto RT-2100 C, China). Cell viability was calculated using the equation: (OD of treated cells/OD of untreated cells) × 100.
(§3) The IC50 values were calculated from a fitted semi-log response curve, plotting cell viability percentages against concentration. These values were determined using the AAT-Bioquest IC50 calculator (https://www.aatbio.com/tools/ic50-calculator).

The subject of series [2] is HepG2 cells. The series can be described thus: MTT cell viability assay, HepG2. The format is cell-based, human. The following applies: synthetic peptide 100 µg/ml, 24 h, mean ± SD, n = 3. As to the method: as §1, §2, §3
Series [3] has as its system MCF-7 cells. Put plainly: MTT cell viability assay, MCF-7. The format is cell-based, human. The following applies: synthetic peptide 100 µg/ml, 24 h, mean ± SD. As to the method: as §1, §2, §3
The test system of series [4] is NCI-H460 cells. The series can be described thus: MTT cell viability assay, NCI-H460. The following applies: synthetic peptide 100 µg/ml, 24 h, mean ± SD. The format is cell-based, human. As to the method:
as §1, §2, §3

Series [5] concerns SiHa cells. Put plainly: MTT cell viability assay, SiHa. In kind it is cell-based, human. Particulars: synthetic peptide 100 µg/ml, 24 h, mean ± SD, n = 3. The procedure:
as §1, §2, §3

For series [6], the system named is SW620 cells. The series can be described thus: MTT cell viability assay, SW620. In kind it is cell-based, human. Particulars: synthetic peptide 100 µg/ml, 24 h, mean ± SD. As to the method:
as §1, §2, §3

The test system of series [7] is Vero cells. The series can be described thus: MTT cell viability assay, Vero. The format is cell-based, monkey. Particulars: synthetic peptide 100 µg/ml, 24 h, mean ± SD, n = 3. As to the method:
as §1, §2, §3

For series [8], the system named is angiotensin-converting enzyme (ACE). Put plainly: ACE inhibitory activity assay (HHL substrate). The following applies: peptide 100 µg/ml, ACE 0.2 U/mL, 5 mM HHL, phosphate buffer pH 6.8, 37 °C, mean ± SD, n = 3; SD. In kind it is biochemical. The procedure:
The method utilized here is a spectrophotometric method based on the commonly used method introduced by Cushman and Cheung (1971)[45]. The 5 ul of sample was preincubated with 45 ul of ACE enzyme (0.2 U/mL) in 100 mM Phosphate buffer (pH 6.8) and incubated for 10 min at 37 °C. Enzyme activity was assayed by monitoring the hydrolysis of hippuryl-L-histidyl-L-leucine (HHL). After adding 50 µL of a 5 mM HHL substrate solution, the increase in absorbance at 405 nm was measured every minute for 15 min at 37 °C using a 96-well microplate reader. The initial velocity was determined from the linear portion of the curve, and the inhibitory activity was expressed as a percentage calculated using the following equation:
% inhibition = (1-(B-b)/(A-a)) x 100,
where A is an initial velocity of the control reaction with enzyme (control), a is an initial velocity of the control reaction without enzyme (control blank), B is an initial velocity of the enzyme reaction with sample and b is an initial velocity of the reaction with sample but without enzyme (sample blank).

A short description of series [9]: ABTS radical scavenging assay. The format is physicochemical. The following applies: peptide 100 µg/ml, 5 min in the dark, absorbance 750 nm, mean ± SD, n = 3. The procedure:
Radical scavenging antioxidant activity was determined according to the ABTS radical scavenging activity following the method described by Re et al.[46] with slight modifications. Briefly, the solution of ABTS radical was prepared from the reaction between 7 mM ABTS (2,2-azino-bis (3-ethylbenzothiazoline-6-sulphonic acid) diammonium salt) and 2.45 mM ammonium persulphate. The resulting ABTS solution was diluted with distilled water to achieve an optical density of 0.7 at 750 nm. Then, a sample or standard of 10 µL was mixed with 190 µL of ABTS solution and incubated for 5 min in the dark. The absorbance was measured at 750 nm by a microplate reader (Rayto RT-2100 C, China). Ascorbic acid was used as the standard.

Series [10] is described as follows: DPPH radical scavenging assay. The format is physicochemical. Particulars: peptide 100 µg/ml, 0.1 mM DPPH, 30 min in the dark, room temperature, absorbance 517 nm, mean ± SD, n = 3. The procedure: The DPPH radical scavenging activity of the sample was evaluated following the protocol by Muangrod et al.[48] with slight modifications. Briefly, 190 µL of 0.1 mM DPPH was mixed with 10 µL of the sample or standard ascorbic acid in each well and incubated at room temperature in the dark for 30 min. The absorbance of the mixture was measured at 517 nm using a microplate reader (Rayto RT-2100 C, China). Ascorbic acid was used as the standard. Results were expressed as micrograms ascorbic acid equivalent (µg AAE g^−1).

Series [11] in a line: FRAP ferric ion-reducing antioxidant power assay. The format is physicochemical. Particulars: peptide 100 µg/ml, 30 min in the dark, absorbance 593 nm, mean ± SD, n = 3. As to the method: The ferric ion-reducing antioxidant power assay was analyzed according to the method by Rumpf et al.[47] with minor modifications. Briefly, the FRAP reagent was prepared from 300 mM sodium acetate (pH 3.6) and 10 mM TPTZ (2,4,6-tris (2-pyridyl)-s-triazine) in 40 mM HCl and 20 mM ferric chloride at the ratio of 10:1:1, respectively. Then, a 10 µL aliquot of the sample or standard was mixed with 190 µL of the FRAP reagent before incubating in the dark for 30 min. The absorbance was measured at 593 nm using a microplate reader (Rayto RT-2100 C, China). Ascorbic acid was used as the standard. Results were expressed as micrograms of ascorbic acid equivalent per gram (µg AAE g^−1).

No end group written: not given here.

This note sets out measurements from publication PMC12592418, “Therapeutic potential of red bean (phaseolus vulgaris) peptides: anticancer, antihypertension, and antioxidant activities” (Scientific Reports, 2025).

In the case of NLRKLKRL [RB-1], the “Inhibitory percentage, CaCO2” value in series [1] is given as 7.33±0.02%. For the same substance, the “Inhibitory percentage, HepG2” value in [2] was determined as 0%. Also, the “Inhibitory percentage, MCF-7” value in [3] (n = 3, SD) was determined as 2.10±0.00%. Further, the “Inhibitory percentage, NCI-H460” value in [4] (n = 3, SD) came out at 5.40±0.01%. For the same substance, in series [5], the “Inhibitory percentage, SiHa” value turned out to be 4.64±0.02%. Also, the “Inhibitory percentage, SW620” value in series [6] (n = 3) was found to be 0%. Besides, the “Inhibitory percentage, Vero” value in series [7] is listed as 0%. Also, the “Antihypertension (%), percentage inhibition of ACE” value in series [8] was found to be 20.00±2.82%. In series [9], the “Antioxidant, ABTS” value was 367.86±25.39 µg ascorbic acid equivalent. Moreover, in series [10], the “Antioxidant, DPPH” value was 373.74±12.01 µg ascorbic acid equivalent. Moreover, the “Antioxidant, FRAP” value in series [11] is listed as 189.53±6.59 µg ascorbic acid equivalent.

Turning to RGSKQRQKRQW [RB-7], the “Inhibitory percentage, CaCO2” value in series [1] stood at 5.73±0.02%. The “Inhibitory percentage, HepG2” value in series [2] came out at 0%. Moreover, in [3] (n = 3), the “Inhibitory percentage, MCF-7” value stood at 0%. For the same substance, in series [4] (n = 3, SD), the “Inhibitory percentage, NCI-H460” value was 1.74±0.01%. The “Inhibitory percentage, SiHa” value in [5] came out at 8.78±0.08%. Also, the “Inhibitory percentage, SW620” value in [6] (n = 3, SD) was 1.47±0.01%. The “Inhibitory percentage, Vero” value in [7] is given as 0%. The “Antihypertension (%), percentage inhibition of ACE” value in series [8] was 60.00±1.29%. Also, the “Antioxidant, ABTS” value in [9] is on record as 507.53±13.49 µg ascorbic acid equivalent. In series [10], the “Antioxidant, DPPH” value was 805.35±5.83 µg ascorbic acid equivalent. For the same substance, the “Antioxidant, FRAP” value in series [11] is reported as 187.50±1.88 µg ascorbic acid equivalent.

As for RRLRILL [RB-6], the “Inhibitory percentage, CaCO2” value in series [1] worked out at 19.32±0.18%. For the same substance, in [2], the “Inhibitory percentage, HepG2” value is recorded as 0%. The “Inhibitory percentage, MCF-7” value in [3] (n = 3) was 0%. Besides, the “Inhibitory percentage, NCI-H460” value in series [4] (n = 3) was determined as 0%. Further, in series [5], the “Inhibitory percentage, SiHa” value is recorded as 9.72±0.02%. For the same substance, in series [6] (n = 3), the “Inhibitory percentage, SW620” value was determined as 0%. Besides, in series [7], the “Inhibitory percentage, Vero” value is reported as 0%. Also, the “Antihypertension (%), percentage inhibition of ACE” value in series [8] amounted to 46.67±0.36%. For the same substance, the “Antioxidant, ABTS” value in series [9] is recorded as 595.33±18.41 µg ascorbic acid equivalent. Moreover, the “Antioxidant, DPPH” value in series [10] was 584.66±4.15 µg ascorbic acid equivalent. Besides, in [11], the “Antioxidant, FRAP” value is listed as 120.46±0.07 µg ascorbic acid equivalent.

Turning to SPTPPKNVPF [RB-3], the “Inhibitory percentage, CaCO2” value in series [1] is given as 7.88±0.08%. Also, the “Inhibitory percentage, HepG2” value in series [2] is 0%. In addition, the “Inhibitory percentage, MCF-7” value in series [3] (n = 3) is 0%. The “Inhibitory percentage, NCI-H460” value in series [4] (n = 3) is reported as 0%. Moreover, in series [5], the “Inhibitory percentage, SiHa” value turned out to be 12.36±0.02%. Besides, the “Inhibitory percentage, SW620” value in series [6] (n = 3) came out at 0%. Moreover, in series [7], the “Inhibitory percentage, Vero” value is on record as 0%. In addition, the “Antihypertension (%), percentage inhibition of ACE” value in series [8] is on record as 20.00±1.02%. Also, the “Antioxidant, ABTS” value in series [9] was 274.73±0.27 µg ascorbic acid equivalent. Also, in series [10], the “Antioxidant, DPPH” value is 227.13±1.55 µg ascorbic acid equivalent. Also, the “Antioxidant, FRAP” value in series [11] is 58.05±0.09 µg ascorbic acid equivalent.
